US20250325570A1, “DOSE AND REGIMEN FOR A HETEROCYCLIC PHOSPHINIC COMPOUND” (PHOST'IN THERAPEUTICS, priority 2022, published 2025)
Several values for one entry are separate records, joined by “and”; a condition that tells them apart may be missing. Equal entries are not always repeated. Where two headings read alike, the source gives them in different places.

Key:
[1] = Dynamic vapor sorption (DVS) analysis of the crystalline form; assay type: physicochemical
From the text: In a particular embodiment, the crystalline form of the invention is non-hygroscopic.

[2] = First-in-human trial, dose escalation phase: full-course PK profiling of PST3.1a; assay type: in vivo; details: for AUC / C-max / T1/2 / T-Max: oral; for Pre dosing: oral bid
From the text: The proposed clinical trial is a first-in-human trial (FIH) in patients with advanced solid tumours, including a dose escalation phase (part I) enrolling patients with any type of tumour with safety/tolerability as the primary endpoint, pharmacokinetics, evaluation of a potential food effect, and efficacy as secondary endpoints, followed by an expansion phase (part II) recruiting patients with glioblastoma (GBM—23 patients, cohort 1), triple negative breast cancer (TNBC—15 patients, cohort 2) and other selected solid tumours (30 patients, cohort 3). The dose for the expansion phase is selected based on the results of the escalation phase. Pharmacodynamics and response prediction is an exploratory objective of this whole FIH study.
To characterize the pharmacokinetics (PK) profile of PST3.1a by establishing the PK profile of the drug including assessment of a potential food effect on drug exposure.
A standard 3+3 design is followed for the escalation phase. PST3.1a is administered orally twice a day (bid) continuously in cycles of 21 days. At each Dose Level (DL), three patients are included and the first patient is observed for at least 21 days before enrolling the following two. Three additional patients are enrolled at each DL if a Dose Limiting Toxicity (DLT) is observed in the first three patients. No intra-patient dose escalation is allowed. The Maximum Tolerated Dose (MTD) is defined as the highest dose at which a DLT is observed in 0/3 or 1/6 patients and is considered as the recommended phase 2 dose (RP2D).
The dose escalation phase includes two steps: • In step 1, one dose (DL1) of PST3.1a is tested, corresponding to the dose of 10 mg/kg/day bid.
Two full-course PK profiling are obtained for each patient: one at C1D1 (Cycle 1/Day 1) in fasted state patients and another at C2D1 (Cycle 2/Day 1) in fed state patients (omitting the evening dose of PST3.1a on CID1 and C2D1). • In step 2, three DL (DL2a to 4a) with PST3.1a administered to fasted patients at the dose of 20, 40 and 70 mg/kg/day bid (i.e. twice a day), respectively, and/or three DL (DL2b to 4b) with PST3.1a administered to fed patients at the dose of 10, 20 and 40 mg/kg/day bid, respectively, could be opened.
For each patient included in the second step of the dose escalation, a full-course PK profiling is performed: • a. for DL2a, 3a and 4a, at C1D1 in fasted state; • b. for DL2b, 3b and 4b at C1D1 in fed state; • c. for DL2b only, 4 days before beginning treatment (C1D4), in fasted state.
PST3.1a is supplied as a drinkable solution in vials of 2 mL and 10 mL. Patients are provided with an appropriate number of 2 mL and 10 mL vials, as well as with a specific dosing device, in order to combine them to reach the appropriate volume. Volumes of DP to be administered at each dosing occasion are rounded in a standardized way according to patient body weight range, as described in Table 2.
PST3.1a is administered per os every 12±1 hours to fasted patients or after a regular meal, according to the schedule of the DL in which the patient is included. Fasting is defined as no food intake for 2 hours before and two hours after study drug administration. Cycles is of 21 days. If treatment is delayed for reasons other than toxicity, a maximal delay of 1 day is accepted.

[3] = DL1 = 10 mg/kg/day, FED patients
[4] = DL1 = 10 mg/kg/day, fasted patients
[5] = DL2 = 20 mg/kg/day, fasted patients
[6] = DL3 = 40 mg/kg/day, fasted patients

Compound: O=[P@@]1(c2ccccc2)O[C@H](COCc2ccccc2)[C@@H](OCc2ccccc2)[C@H](OCc2ccccc2)C1O (some centres unmarked) [PST3.1a, 3-Hydroxy-4,5-bis-benzyloxy-6-benzyloxymethyl-2-phenyl-2-oxo-2λ5-[1,2]oxaphosphinane]
- Hygroscopicity ([1]; crystalline form): non-hygroscopic
- Weight loss in DVS analysis ([1]; relative humidity range 0% RH to 95% RH): lower than 0.1%
- Food effect on drug exposure (fed vs fasted patients) ([2]; DL1 = 10 mg/kg/day, comparison of Table 4): significative fed effect
- AUC [2, 3]: 426 ng·h/mL
- C-max [2, 3]: 43 ng/mL and 27.9 ng/mL
- T1/2 [2, 3]: 11.7 h
- AUC [2, 4]: 225 ng·h/mL
- C-max [2, 4]: 42 ng/mL and 28 ng/mL
- T1/2 [2, 4]: 8.1 h
- Pre dosing [2, 5]: 20.6 ng/mL
- C-max [2, 5]: 67.7 ng/mL
- T-Max [2, 5]: 1 h
- Pre dosing [2, 6]: 25.4 ng/mL and 46.3 ng/mL
- AUC [2, 6]: 650.6 ng·h/mL and 626.6 ng·h/mL
- C-max [2, 6]: 56.2 ng/mL and 97.6 ng/mL and 108.9 ng/mL
- T-Max [2, 6]: 1.5 h and 2 h (2×)
- half-life ([2]; human, in vivo, po, 10 mg/kg/day, DL1 = 10 mg/kg/day, FED patients): 17.5 h
- half-life ([2]; human, in vivo, po, 10 mg/kg/day, DL1 = 10 mg/kg/day, fasted patients): 9.2 h
- AUC ([2]; human, in vivo, po, 10 mg/kg/day, DL1 = 10 mg/kg/day, FED patients, read-out: AUC): 587 ng·h/mL
- AUC ([2]; human, in vivo, po, 10 mg/kg/day, DL1 = 10 mg/kg/day, fasted patients, read-out: AUC): 310 ng·h/mL
- half-life ([2]; human, in vivo, po, 20 mg/kg/day, DL2 = 20 mg/kg/day, fasted patients): 7.9 h
- AUC ([2]; human, in vivo, po, 20 mg/kg/day, DL2 = 20 mg/kg/day, fasted patients, read-out: AUC): 340 ng·h/mL
- AUC ([2]; human, in vivo, po, 40 mg/kg/day, DL3 = 40 mg/kg/day, fasted patients, read-out: AUC): 336 ng·h/mL
